Measurements published in PubChem BioAssay (NCI).
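GI50 is the concentration that inhibits growth by half. TGI denotes the concentration required for complete inhibition of growth.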

Assays:
Assay in all cases: growth of human tumour cells (NCI), 384-well format
MALME-3M melanoma = tested on: MALME-3M melanoma
NCI-H23 lung = tested on: NCI-H23 lung
UO-31 renal = tested on: UO-31 renal
LOX IMVI melanoma = tested on: LOX IMVI melanoma
SR leukemia = tested on: SR leukemia
RXF 393 renal = tested on: RXF 393 renal
786-0 renal = tested on: 786-0 renal
SNB-75 CNS = tested on: SNB-75 CNS
HS 578T breast = tested on: HS 578T breast
NCI-H522 lung = tested on: NCI-H522 lung
MDA-MB-231 breast = tested on: MDA-MB-231 breast
HCT-15 colon = tested on: HCT-15 colon
TK-10 renal = tested on: TK-10 renal
SF-539 CNS = tested on: SF-539 CNS
KM12 colon = tested on: KM12 colon
HT29 colon = tested on: HT29 colon
A549 NSCLC = tested on: A549 NSCLC
RPMI-8226 leukemia = tested on: RPMI-8226 leukemia
ACHN renal = tested on: ACHN renal
BT-549 breast = tested on: BT-549 breast
SW-620 colon = tested on: SW-620 colon
SK-MEL-5 melanoma = tested on: SK-MEL-5 melanoma
NCI-H460 NSCLC = tested on: NCI-H460 NSCLC
IGROV1 ovarian = tested on: IGROV1 ovarian
CCRF-CEM leukemia = tested on: CCRF-CEM leukemia
HOP-92 NSCLC = tested on: HOP-92 NSCLC
DU-145 prostate = tested on: DU-145 prostate
OVCAR-4 ovarian = tested on: OVCAR-4 ovarian
UACC-62 melanoma = tested on: UACC-62 melanoma

Compound: Cc1ccc(NC(=O)c2ccc(CN3CCN(C)CC3)cc2)cc1Nc1nc(-c2cccnc2)cs1
- GI50 (MALME-3M melanoma): 1.64 µM
- TGI (MALME-3M melanoma): 3.16 µM
- GI50 (NCI-H23 lung): 2.9 µM
- TGI (NCI-H23 lung): 11.9 µM
- GI50 (UO-31 renal): 5.43 µM
- TGI (UO-31 renal): 17.4 µM
- GI50 (LOX IMVI melanoma): 1.91 µM
- TGI (LOX IMVI melanoma): 3.52 µM
- GI50 (SR leukemia): 1.53 µM
- TGI (SR leukemia): 2.87 µM
- GI50 (RXF 393 renal): 1.54 µM
- TGI (RXF 393 renal): 2.98 µM
- GI50 (786-0 renal): 1.79 µM
- TGI (786-0 renal): 3.66 µM
- GI50 (SNB-75 CNS): 3.7 µM
- TGI (SNB-75 CNS): 12 µM
- GI50 (HS 578T breast): 1.73 µM
- TGI (HS 578T breast): 3.87 µM
- GI50 (NCI-H522 lung): 3.83 µM
- TGI (NCI-H522 lung): 13.9 µM
- GI50 (MDA-MB-231 breast): 3.38 µM
- TGI (MDA-MB-231 breast): 11.7 µM
- GI50 (HCT-15 colon): 1.69 µM
- TGI (HCT-15 colon): 3.2 µM
- GI50 (TK-10 renal): 12.2 µM
- TGI (TK-10 renal): 24.7 µM
- GI50 (SF-539 CNS): 1.5 µM
- TGI (SF-539 CNS): 3.19 µM
- GI50 (KM12 colon): 3.11 µM
- TGI (KM12 colon): 10.3 µM
- GI50 (HT29 colon): 1.72 µM
- TGI (HT29 colon): 3.32 µM
- GI50 (A549 NSCLC): 5.25 µM
- TGI (A549 NSCLC): 17.3 µM
- GI50 (RPMI-8226 leukemia): 1.42 µM
- TGI (RPMI-8226 leukemia): 2.78 µM
- GI50 (ACHN renal): 3.31 µM
- TGI (ACHN renal): 9.96 µM
- GI50 (BT-549 breast): 4.12 µM
- TGI (BT-549 breast): 14.4 µM
- GI50 (SW-620 colon): 2.17 µM
- TGI (SW-620 colon): 5.13 µM
- GI50 (SK-MEL-5 melanoma): 1.55 µM
- TGI (SK-MEL-5 melanoma): 3.15 µM
- GI50 (NCI-H460 NSCLC): 2.16 µM
- TGI (NCI-H460 NSCLC): 4.71 µM
- GI50 (IGROV1 ovarian): 11.2 µM
- TGI (IGROV1 ovarian): 23.3 µM
- GI50 (CCRF-CEM leukemia): 1.54 µM
- TGI (CCRF-CEM leukemia): 3.09 µM
- GI50 (HOP-92 NSCLC): 3.33 µM
- TGI (HOP-92 NSCLC): 12.2 µM
- GI50 (DU-145 prostate): 12 µM
- TGI (DU-145 prostate): 24.4 µM
- GI50 (OVCAR-4 ovarian): 2.59 µM
- TGI (OVCAR-4 ovarian): 11.1 µM
- GI50 (UACC-62 melanoma): 1.75 µM
- TGI (UACC-62 melanoma): 3.64 µM
